Test results as given in patent US8198273B2, “Compounds and methods for kinase modulation, and indications therefor” (Plexxikon Inc., priority 2009, dated 2012).

How the values were obtained:
[1] = Relative solubility by turbidity in aqueous buffers of varying pH; assay type: physicochemical; details: for turbidity threshold (L, M, H) 7.4: HEPES pH 7.4; for turbidity threshold (L, M, H) 4.5: SIF pH 4.5; for turbidity threshold (L, M, H) 6.8: SIF pH 6.8; for turbidity threshold (L, M, H) 1.4: buffer pH 1.4 (SGF)
Method in brief: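 Turbidity endpoint: concentration where optical density at 490, 535 and 650 nm exceeds 0.01, three-wavelength average used. Buffers at pH 1.5, 4.5, 6.8 and 7.4; DMSO serial dilutions of 25 mM stock spiked 1 μL into 99 μL buffer. Low <31.3, moderate 31.3–250, high >250 μM.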

[2] = test system: A375 melanoma cells (B-Raf V600E); assay: A375 cell growth inhibition (ATPlite); assay type: cell-based; details: Homo sapiens, A-375, 72 h; A375, 3 days incubation
Method in brief: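 Cells plated overnight, then exposed 3 days at 37° C to 8-point 1:3 compound dilutions topping at 10 μM final. Viability read as ATPlite luminescence, proportional to cell number; IC50 from luminescence versus concentration.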

CYP2D6 = CYP2D6 (Homo sapiens, UniProt P10635); assay: CYP2D6 inhibition (fluorescent substrate); assay type: in vitro ADME; details: CYP2D6, AMMC substrate; read-out: Cyp IC50 2D6
Sequence of CYP2D6 (P10635 whole entry): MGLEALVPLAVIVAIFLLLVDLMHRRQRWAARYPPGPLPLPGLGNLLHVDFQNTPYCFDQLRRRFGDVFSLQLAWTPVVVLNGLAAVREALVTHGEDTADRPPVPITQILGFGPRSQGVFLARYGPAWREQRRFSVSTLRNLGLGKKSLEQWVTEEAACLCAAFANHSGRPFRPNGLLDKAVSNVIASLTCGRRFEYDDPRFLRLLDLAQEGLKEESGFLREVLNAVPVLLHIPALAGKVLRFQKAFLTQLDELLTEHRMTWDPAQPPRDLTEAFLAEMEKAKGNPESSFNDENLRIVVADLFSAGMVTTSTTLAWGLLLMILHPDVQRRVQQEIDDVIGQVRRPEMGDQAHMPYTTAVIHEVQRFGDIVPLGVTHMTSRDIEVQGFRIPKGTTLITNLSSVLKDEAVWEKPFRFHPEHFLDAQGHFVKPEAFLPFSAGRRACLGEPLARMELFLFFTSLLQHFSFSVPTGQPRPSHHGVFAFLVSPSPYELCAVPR
Method in brief: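 Human CYP activity was followed by the fluorescence of the metabolized product of a known substrate, which falls as metabolism is inhibited. Compounds from 100 mM DMSO stocks were serially diluted 1:1 over 10 points in co-factor mix and preincubated 10 min at 37 °C. IC50 was fitted from signal versus concentration.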

SMILES | IC50 [2] [nM] | IC50 (CYP2D6) [µM] | turbidity threshold (L, M, H) 7.4 [1] | turbidity threshold (L, M, H) 4.5 [1] | turbidity threshold (L, M, H) 6.8 [1] | turbidity threshold (L, M, H) 1.4 [1]
CCCS(=O)(=O)Nc1cccc(C(=O)c2c[nH]c3ncc(-c4cnc(OC)nc4)cc23)c1F [P-2407, Propane-1-sulfonic acid {2-fluoro-3-[5-(2-methoxy-pyrimidin-5-yl)-1H-pyrrolo[2,3-b]pyridine-3-carbonyl]-phenyl}-amide] | < 1000 | > 10 | L (low solubility if the threshold concentration is <31.3 04) | L (low solubility if the threshold concentration is <31.3 04) | L (low solubility if the threshold concentration is <31.3 04) | L (low solubility if the threshold concentration is <31.3 04)
CCCS(=O)(=O)Nc1ccc(F)c(C(=O)c2c[nH]c3ncc(-c4cnc(C)nc4)cc23)c1F [P-2211, Propane-1-sulfonic acid {2,4-difluoro-3-[5-(2-methyl-pyrimidin-5-yl)-1H-pyrrolo[2,3-b]pyridine-3-carbonyl]-phenyl}-amide] | < 1000 | > 10 | M (moderate solubility if the threshold concentration is 31.3 μM to 250 μM) | M (moderate solubility if the threshold concentration is 31.3 μM to 250 μM) | M (moderate solubility if the threshold concentration is 31.3 μM to 250 μM) | M (moderate solubility if the threshold concentration is 31.3 μM to 250 μM)
CCCS(=O)(=O)Nc1ccc(F)c(C(=O)c2c[nH]c3ncc(-c4cn[nH]c4)cc23)c1F [P-2174, Propane-1-sulfonic acid {2,4-difluoro-3-[5-(1H-pyrazol-4-yl)-1H-pyrrolo[2,3-b]pyridine-3-carbonyl]-phenyl}-amide] | < 1000 | 5 to 10 | L (low solubility if the threshold concentration is <31.3 04) | L (low solubility if the threshold concentration is <31.3 04) | L (low solubility if the threshold concentration is <31.3 04) | L (low solubility if the threshold concentration is <31.3 04)
COc1ccnc2[nH]cc(C(=O)c3c(F)ccc(NS(=O)(=O)c4cc(F)ccc4F)c3F)c12 [P-2022, N-[2,4-Difluoro-3-(4-methoxy-1H-pyrrolo[2,3-b]pyridine-3-carbonyl)-phenyl]-2,5-difluoro-benzenesulfonamide] | < 5000 | > 10 | H (high solubility if the threshold concentration is >250 μM) | M (moderate solubility if the threshold concentration is 31.3 μM to 250 μM) | M (moderate solubility if the threshold concentration is 31.3 μM to 250 μM) | H (high solubility if the threshold concentration is >250 μM)
COc1cnc2[nH]cc(C(=O)c3c(F)ccc(NS(=O)(=O)c4ccccc4F)c3F)c2c1 [P-2009, N-[2,4-Difluoro-3-(5-methoxy-1H-pyrrolo[2,3-b]pyridine-3-carbonyl)-phenyl]-2-fluoro-benzenesulfonamide] | < 1000 | > 10 | M (moderate solubility if the threshold concentration is 31.3 μM to 250 μM) | L (low solubility if the threshold concentration is <31.3 04) | L (low solubility if the threshold concentration is <31.3 04) | L (low solubility if the threshold concentration is <31.3 04)
Cc1cnc2[nH]cc(C(=O)c3c(F)ccc(NS(=O)(=O)c4cc(F)ccc4F)c3F)c2c1 [P-2015, N-[2,4-Difluoro-3-(5-methyl-1H-pyrrolo[2,3-b]pyridine-3-carbonyl)-phenyl]-2,5-difluoro-benzenesulfonamide] | < 1000 | > 10 | M (moderate solubility if the threshold concentration is 31.3 μM to 250 μM) | L (low solubility if the threshold concentration is <31.3 04) | M (moderate solubility if the threshold concentration is 31.3 μM to 250 μM) | M (moderate solubility if the threshold concentration is 31.3 μM to 250 μM)

More lines, main results first:

IC50 [2] [nM] | IC50 (CYP2D6) [µM] | SMILES | turbidity threshold (L, M, H) 7.4 [1] | turbidity threshold (L, M, H) 4.5 [1] | turbidity threshold (L, M, H) 6.8 [1] | turbidity threshold (L, M, H) 1.4 [1]
< 1000 | > 10 | CCCS(=O)(=O)Nc1ccc(F)c(C(=O)c2c[nH]c3ncc(-c4ccc(C(=O)NC5CC5)nc4)cc23)c1F [P-2181, 5-{3-[2,6-Difluoro-3-(propane-1-sulfonylamino)-benzoyl]-1H-pyrrolo[2,3-b]pyridin-5-yl}-pyridine-2-carboxylic acid cyclopropylamide] | L (low solubility if the threshold concentration is <31.3 04) | L (low solubility if the threshold concentration is <31.3 04) | L (low solubility if the threshold concentration is <31.3 04) | L (low solubility if the threshold concentration is <31.3 04)
< 1000 | > 10 | N#Cc1cnc2[nH]cc(C(=O)c3c(F)ccc(NS(=O)(=O)c4ccccc4F)c3F)c2c1 [P-2011, N-[3-(5-Cyano-1H-pyrrolo[2,3-b]pyridine-3-carbonyl)-2,4-difluoro-phenyl]-2-fluoro-benzenesulfonamide] | M (moderate solubility if the threshold concentration is 31.3 μM to 250 μM) | M (moderate solubility if the threshold concentration is 31.3 μM to 250 μM) | M (moderate solubility if the threshold concentration is 31.3 μM to 250 μM) | M (moderate solubility if the threshold concentration is 31.3 μM to 250 μM)
< 1000 | > 10 | COc1ccnc2[nH]cc(C(=O)c3c(F)ccc(NS(=O)(=O)c4ccccc4F)c3F)c12 [P-2021, N-[2,4-Difluoro-3-(4-methoxy-1H-pyrrolo[2,3-b]pyridine-3-carbonyl)-phenyl]-2-fluoro-benzenesulfonamide] | M (moderate solubility if the threshold concentration is 31.3 μM to 250 μM) | M (moderate solubility if the threshold concentration is 31.3 μM to 250 μM) | M (moderate solubility if the threshold concentration is 31.3 μM to 250 μM) | H (high solubility if the threshold concentration is >250 μM)
< 100 | > 10 | CCCS(=O)(=O)Nc1ccc(F)c(C(=O)c2c[nH]c3ncc(-c4ccc(OCCCN5CCOCC5)nc4)cc23)c1F [P-2236, Propane-1-sulfonic acid (2,4-difluoro-3-{5-[6-(3-morpholin-4-yl-propoxy)-pyridin-3-yl]-1H-pyrrolo[2,3-b]pyridine-3-carbonyl}-phenyl)-amide] | L (low solubility if the threshold concentration is <31.3 04) | M (moderate solubility if the threshold concentration is 31.3 μM to 250 μM) | L (low solubility if the threshold concentration is <31.3 04) | M (moderate solubility if the threshold concentration is 31.3 μM to 250 μM)
< 1000 | > 10 | O=C(c1c(F)ccc(NS(=O)(=O)c2c(F)cccc2F)c1F)c1c[nH]c2ncc(Cl)cc12 [P-2003, N-[3-(5-Chloro-1H-pyrrolo[2,3-b]pyridine-3-carbonyl)-2,4-difluoro-phenyl]-2,6-difluoro-benzenesulfonamide] | H (high solubility if the threshold concentration is >250 μM) | M (moderate solubility if the threshold concentration is 31.3 μM to 250 μM) | M (moderate solubility if the threshold concentration is 31.3 μM to 250 μM) | M (moderate solubility if the threshold concentration is 31.3 μM to 250 μM)
< 100 | > 10 | CCCS(=O)(=O)Nc1ccc(F)c(C(=O)c2c[nH]c3ncc(-c4ccc(S(=O)(=O)N(C)C)cc4)cc23)c1F [P-2185, 4-{3-[2,6-Difluoro-3-(propane-1-sulfonylamino)-benzoyl]-1H-pyrrolo[2,3-b]pyridin-5-yl}-N,N-dimethyl-benzenesulfonamide] | L (low solubility if the threshold concentration is <31.3 04) | L (low solubility if the threshold concentration is <31.3 04) | L (low solubility if the threshold concentration is <31.3 04) | L (low solubility if the threshold concentration is <31.3 04)
< 100 | > 10 | CCCS(=O)(=O)Nc1ccc(F)c(C(=O)c2c[nH]c3ncc(-c4cnc(N5CCCC5)nc4)cc23)c1F [P-2219, Propane-1-sulfonic acid {2,4-difluoro-3-[5-(2-pyrrolidin-1-yl-pyrimidin-5-yl)-1H-pyrrolo[2,3-b]pyridine-3-carbonyl]-phenyl}-amide] | L (low solubility if the threshold concentration is <31.3 04) | L (low solubility if the threshold concentration is <31.3 04) | L (low solubility if the threshold concentration is <31.3 04) | M (moderate solubility if the threshold concentration is 31.3 μM to 250 μM)
